Test results taken from ChEMBL document CHEMBL1201862, “PubChem BioAssay data set” (2004).
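Compound exposure: 48 hours, 5 concentrations, 96-well plates. GI50 = concentration required for 50% inhibition of growth.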 Calls of active or inactive are those of the source. Cut-off read from the data, not from the text of the source: active = GI50 up to about 1.1 µM and inactive = higher.

What was measured:
Experiment in all cases: DTP human tumour cell line panel, 48 h
A498 = system: A498
A549 = system: A549
CCRF-CEM = system: CCRF-CEM
HCC 2998 = system: HCC 2998
Hs-578T = system: Hs-578T
IGROV-1 = system: IGROV-1
Malme-3M = system: Malme-3M
NCI-H226 = system: NCI-H226
NCI-H23 = system: NCI-H23
NCI-H460 = system: NCI-H460
SF-295 = system: SF-295
SK-MEL-5 = system: SK-MEL-5
SR = system: SR
SW-620 = system: SW-620
TK-10 = system: TK-10
U-251 = system: U-251
UO-31 = system: UO-31
HT-29 = system: HT-29
MOLT-4 = system: MOLT-4

Measured: GI50

C[N+](C)(C)CCN(Cc1cccs1)c1ccccn1
inactive: A498 > 100 µM | A549 68.9 µM | CCRF-CEM > 100 µM | HCC 2998 > 100 µM | Hs-578T 74.5 µM | IGROV-1 > 100 µM | Malme-3M > 100 µM | NCI-H226 > 100 µM | NCI-H23 88.1 µM | NCI-H460 > 100 µM | SF-295 > 100 µM | SK-MEL-5 > 100 µM | SR > 100 µM | SW-620 > 100 µM | TK-10 > 100 µM | U-251 > 100 µM | UO-31 > 100 µM

CCOC(=O)C1CCCC1S(=O)(=O)c1ccc(C)cc1 (configuration not stated)
inactive: A498 45.3 µM | A549 > 100 µM | CCRF-CEM > 100 µM | HCC 2998 > 100 µM | HT-29 > 100 µM | Hs-578T > 100 µM | IGROV-1 > 100 µM | MOLT-4 > 100 µM | Malme-3M > 100 µM | NCI-H226 > 100 µM | NCI-H23 > 100 µM | NCI-H460 > 100 µM | SF-295 > 100 µM | SK-MEL-5 > 100 µM | SR > 100 µM | SW-620 > 100 µM | TK-10 > 100 µM | U-251 > 100 µM | UO-31 > 100 µM

CSc1ccc(/C=C/C(=O)c2nc3ccccc3[nH]2)cc1
inactive: A498 13.6 µM | A549 18.2 µM | CCRF-CEM 3.49 µM | HCC 2998 10.7 µM | HT-29 15.7 µM | Hs-578T 37.2 µM | IGROV-1 30.3 µM | MOLT-4 3.02 µM | Malme-3M 44.7 µM | NCI-H226 13.6 µM | NCI-H23 23.6 µM | NCI-H460 18.4 µM | SF-295 24.3 µM | SK-MEL-5 21.2 µM | SR 2.35 µM | SW-620 9.29 µM | TK-10 3.58 µM | UO-31 3.66 µM

O=C(Nc1ccc(Cl)cc1)c1cc(S(=O)(=O)N2CCNNC2=O)c(S)cc1Cl
inactive: A498 > 100 µM | A549 > 100 µM | CCRF-CEM 97.7 µM | HCC 2998 > 100 µM | Hs-578T > 100 µM | IGROV-1 > 100 µM | MOLT-4 > 100 µM | Malme-3M > 100 µM | NCI-H226 > 100 µM | NCI-H460 > 100 µM | SF-295 > 100 µM | SK-MEL-5 > 100 µM | SR > 100 µM | SW-620 > 100 µM | TK-10 52.5 µM | U-251 > 100 µM | UO-31 > 100 µM

COc1cccc(C2c3cc4c(cc3OC(O)C2C)OCO4)c1OC (configuration not stated)
inactive: A498 4.49 µM | A549 4.02 µM | CCRF-CEM 2.61 µM | HCC 2998 14.9 µM | HT-29 3.66 µM | Hs-578T 4.46 µM | IGROV-1 4.65 µM | MOLT-4 2.16 µM | Malme-3M 11 µM | NCI-H226 2.51 µM | NCI-H23 14.4 µM | NCI-H460 3.71 µM | SF-295 3.26 µM | SK-MEL-5 7.14 µM | SR 2.48 µM | SW-620 3.64 µM | TK-10 7.4 µM | U-251 3.27 µM

O=c1[nH]c2nccn2c2c1SCCN2
inactive: A498 > 100 µM | A549 > 100 µM | CCRF-CEM > 100 µM | HCC 2998 > 100 µM | HT-29 > 100 µM | Hs-578T > 100 µM | IGROV-1 > 100 µM | MOLT-4 > 100 µM | Malme-3M > 100 µM | NCI-H226 > 100 µM | NCI-H23 > 100 µM | NCI-H460 > 100 µM | SF-295 > 100 µM | SK-MEL-5 > 100 µM | SR > 100 µM | SW-620 > 100 µM | TK-10 > 100 µM | U-251 > 100 µM
